These results are taken from patent publication US20160058735A1, “METHODS OF TREATING HYPERHIDROSIS” (Dermira, Inc., priority 2014, published 2016).

Data set [1] has as its system patients with severe primary axillary hyperhidrosis. Kind of data set: Phase 2a clinical trial: disease severity by Hyperhidrosis Disease Severity Scale (HDSS). The class given is in vivo, human. To be noted: Formulation A, 2% and 4% pooled; first on-treatment assessment, about one week. As for the experimental part:
(§1) The completed Phase 2a clinical trial was a randomized, double-blind study in 38 patients with severe primary axillary hyperhidrosis.
(§2) Patients were instructed to apply the study product once daily for four weeks using wipes saturated with either the topical formulation of the reference agent or vehicle only. Efficacy was evaluated based on axillary sweat production and disease severity. Assessments were conducted approximately weekly during the four-week treatment period and two weeks after the end of this treatment period. Disease severity was measured using a widely-used patient-reported outcome tool called the Hyperhidrosis Disease Severity Scale, or HDSS, wherein patients rate the severity of their disease on a four-point scale. Patients who rate the severity of their disease as a three or a four on the HDSS are considered to have severe disease, while those who rate it as one or two are considered to have mild or moderate disease. All 38 patients enrolled in the clinical trial rated the severity of their disease as a three or a four on the HDSS prior to the start of treatment. Trial inclusion criteria required that prior to the start of treatment, all patients produce at least 50 mg of sweat in each axilla over a five-minute period.

The test system is the same in data set [2]. Description: Study DRM04-HH01 (Phase 2b): adverse events. As for the experimental part:
Assessments were conducted approximately weekly during the four-week treatment period and the two-week period after the end of this treatment period. […] Trial inclusion criteria required that prior to the start of treatment, all patients produce at least 50 mg of sweat in each axilla over a five-minute period.

The test system is the same in data set [3]. Kind of data set: Phase 2a clinical trial: axillary sweat production. The class given is in vivo, human. As for the experimental part:
as §1
as §2, with “Efficacy” for “Patients were instructed to apply the study product once daily for four weeks using wipes saturated with either the topical formulation of the reference agent or vehicle only. Efficacy”, “All 38 patients enrolled in the clinical trial rated the severity of their disease as a three or a four on the HDSS prior to the start of treatment.” left out

Structures are written as SMILES.

With `C[N+]1(C)CCC(OC(=O)C(O)(c2ccccc2)C2CCCC2)C1.[Br-]` (stereo not drawn) [reference agent, threo-glycopyrronium bromide], the “patients reporting improvement in disease severity (HDSS) from severe to mild or moderate” value in data set [1] is listed as “Nine of 12”. The “patients who withdrew from the study due to adverse events” value in data set [2] (1% cohort) is given as 2.6%; in data set [2] (2% cohort), 5.0%; in data set [2] (3% cohort), 2.5%; in data set [2] (4% cohort), 20.0%. In data set [2] (in vivo), the “most common TEAEs” value is “dry mouth, upper respiratory tract infection, dry skin and blurred vision”. Further, the “treatment-related serious adverse events” value in data set [2] (in vivo) is reported as “No treatment-related serious adverse events were reported”. Also, the “sweat production on average lower than at the start of therapy” value in data set [3] (Formulation A, nine patients, end of four-week treatment period) came to 61%. In data set [3] (two weeks following cessation of therapy), the “reversibility of effect on sweating and disease severity” value is listed as “appeared to be reversible”.
